Results taken from article PMC3224971, “An exo-cell assay for examining real-time γ-secretase activity and inhibition” (Molecular Neurodegeneration, 2009).

Key:
[1] = system: A20 mouse lymphoma cells; test: lymphoma proliferation assay ([3H]thymidine incorporation); type: cell-based; conditions: for inhibition of cellular proliferation (in words): 48 hours of treatment
Protocol: A20 mouse lymphoma cells were seeded in a 96-well plate at a concentration of 5 × 10^5 cells/ml in 100 μl RPMI media containing 2% fetal bovine serum. An additional 100 μl of media containing DMSO or γ-secretase inhibitor was added and incubated for 48 hours at 37°C. After this incubation, the cells were incubated for 5 hours with 2 μCi/ml [^3H]thymidine at 37°C. Proliferative response was then evaluated by harvesting the tritiated DNA from cells using a Skatron cell harvester and proliferation assessed as a function of [^3H]thymidine incorporation measured on a β-counter.

[2] = target: T1, γ-secretase (Mus musculus, UniProt P49769); test: real-time exo-cell γ-secretase assay in A20 mouse lymphoma cells; type: cell-based; conditions: 300 nM, 48 hours treatment
Protocol: Figure 4 Examination of real-time γ-secretase activity in A20 lymphoma and in primary B-CLL patient samples. (a) Correlation between real-time inhibition of γ-secretase activity and GSI-mediated inhibition of A20 mouse lymphoma proliferation. Two 96-well plates were seeded with 50,000 A20 mouse lymphoma cells per well in 100 μl RPMI media. To each of these plates an additional 100 μl of media was added containing DMSO or GSI-34 to indicated final concentration. These plates were incubated for 48 hours at 37°C. Following this incubation, one plate was used in a real-time exo-cell assay to quantitate the real-time inhibition of γ-secretase in A20 cells. Briefly, A20 cells were pelleted and media removed. Fresh media containing 1 μM Sb4 substrate and 0.25% CHAPSO detergent were added and the exo-cell assay was performed. For each assay point n = 4, and s.d. is plotted. Additionally, to the other 96-well plate 2 μCi/ml [^3H]thymidine was incubated with the cells for 5 hours. Following 5-hour incubation at 37°C, the amount of tritiated DNA was quantified on a β-counter. For each proliferation assay point n = 10, and s.d. is plotted. (b) Real-time γ-secretase activity in primary B-CLL patient samples. […] Assay buffer was added to the samples and γ-secretase-mediated cleavage of substrate was monitored using electrochemiluminescence (ECL). […]

[3] = target: T2, γ-secretase (Homo sapiens, UniProt P49768); test: in vitro γ-secretase assay with Sb4 substrate and solubilized γ-secretase; type: biochemical; conditions: Sb4 substrate, 0.25% CHAPSO, solubilized γ-secretase, 2.5 hours at 37°C, ECL detection
Protocol: The in vitro and cell-based γ-secretase assays were performed similarly as previously described. Briefly, the recombinant Sb4 substrate was incubated for 2.5 hours at 37°C in pH 7.0 PIPES buffer in the presence of 0.25% CHAPSO detergent and solubilized γ-secretase at a final concentration of 40 ng/ul. The detection of cleaved substrate was determined using ruthenylated G2-10* antibody. Due to biotinylation of the Sb4 substrate, this eliminated the additional use of 6E10 biotinylated antibody from the original protocol.

[4] = target: T2, γ-secretase; test: extended exo-cell γ-secretase assay in HeLa cells; type: cell-based
Protocol: (§1) Cells were seeded at their indicated concentration in 96-well plates and allowed to attach overnight (Fig. 1c). The next day, media was removed and cells were washed once with PBS. Fresh media was then added containing 0.25% CHAPSO detergent, Sb4 substrate to a final concentration of 1 μM, and 1% DMSO or γ-secretase inhibitor. This was incubated for 2.5 hours at 37°C. Media was removed and cell debris was pelleted from this media for 5 min. at 3,500 rpm's. Supernatant was then added to ruthenylated G2-10* antibody that recognizes cleaved product, but not uncleaved substrate. This was incubated for an additional 2 hours at room temperature. Finally, magnetic streptavidin beads were added to a final concentration of 80 μg/ml and incubated for 30 min. at room temperature. Assay buffer was added to the samples and γ-secretase-mediated cleavage of substrate was monitored using electrochemiluminescence (ECL). Protocol for HTRF detection can be found below.
Conversely, an extended exo-cell assay was performed whereby cells were seeded and allowed to attach overnight as previously described. However, the next day media was removed and replaced with fresh media containing 1% DMSO or γ-secretase inhibitor. These were incubated for 24 hours at 37°C. Following this incubation, the cells were washed once with PBS and fresh media containing detergent and substrate were added. […]

[5] = target: T2, γ-secretase; test: exo-cell γ-secretase assay in HeLa cells; type: cell-based; conditions: HeLa cells incubated simultaneously with GSI, 1 μM Sb4 and 0.25% CHAPSO, 2.5 hours; ECL detection
Protocol: as §1
Homogeneous time-resolved fluorescence (HTRF) was also incorporated for the exo-cell assay detection of cleaved substrate. […] Exo-cell supernatent and HTRF detection mix were incubated together for 5 hours in a 384-well plate and then activity was measured by stimulating at 337 nm and reading at 665 nm.

[6] = target: T1, γ-secretase; test: cell-based γ-secretase assay in N2A cells stably overexpressing APP; conditions: 24 hours with GSI, Aβ 40-site cleavage, ECL detection
Protocol: The cell-based assay utilized N2A mouse neuroblastoma cells that stably overexpress the amyloid precursor protein. These were incubated with γ-secretase inhibitors in a final concentration of 1% DMSO for 24 hours. Following incubation, the supernatant was removed from the cells and assayed for Aβ 40-site cleaved APP product using ruthenylated G2-10* antibody as well as biotinylated 4G8 antibody.

Structure (SMILES) | inhibition of cellular proliferation (in words) [1] | inhibition at 0.3 µM [2] [%] | reduction of cellular proliferation ([1]; 300 nM, 48 hours treatment) [%] | IC50 [3] [nM] | inhibition of γ-secretase activity (in words) ([4]; HeLa cells treated 24 hours with varying concentrations) | IC50 [5] [nM] | IC50 ([4]; HeLa cells incubated with GSI for 24 hours, washed, then Sb4 and CHAPSO, ECL detection) [nM] | IC50 [6] [nM]
CC(C)C[C@H](NC(=O)[C@H](Cc1ccccc1)C[C@@H](O)[C@H](Cc1ccccc1)NC(=O)OC(C)(C)C)C(=O)N[C@@H](Cc1ccccc1)C(N)=O [L-685,458] | able to inhibit cellular proliferation | – | – | – | – | – | – | –
O=C(COc1ccc(F)cc1)Nc1ccc2c(c1)CC1CCC(C2)C1NS(=O)(=O)c1ccc(Cl)s1 (stereo not shown) [GSI-34] | able to inhibit cellular proliferation | ~80 | 30 | 1 | Dose-dependent inhibition | – | – | –
CC(NC(=O)Cc1cc(F)cc(F)c1)C(=O)NC1N=C(c2ccccc2)c2ccccc2N(C)C1=O (stereo not shown) [Compound E] | able to inhibit cellular proliferation | – | – | – | – | 3.8 | 2.8 | 4.6
